In patent publication US5753631A, “Intercellular adhesion mediators” (Cytel Corporation, priority 1995, dated 1998):

Test system: coronary artery rings
Experiment: Acetylcholine-induced endothelial dependent relaxation of coronary artery rings from ischemic-reperfused cats
Type: in vivo, cat
Conditions: 10 mg/Kg i.v.; control 22±6%, P<0.01
Protocol: A model of myocardial ischemia and reperfusion injury in cats was performed according to the methods of Tsao et al (Circulation 82:1402-1412 (1990), which is incorporated herein by reference. Briefly, male cats (2.5-3.5 Kg) were anesthetized with sodium pentobarbital (30 mg/Kg, i.v.). An intratracheal tube was inserted through a mid-line incision and all cats were given intermittent positive pressure ventilation by a Harvard small animal respirator. A polyethylene catheter was inserted into the external jugular vein and the right […] was cannulated and connected to a Statham P23AC pressure transducer for the measurement of arterial blood pressure. A midline thoracotomy was performed, the pericardium was opened and the heart was exposed. A 2-0 silk suture was carefully placed around the left anterior descending artery (LAD) 10-12 mm from its origin. […]
Endothelial dependent relaxation of coronary artery rings was determined by measuring the acetylcholine-induced relaxation of rings previously contracted with the thromboxane A2 mimetic U46619. Data are expressed as percentage relaxation. Creatinine kinase enzyme levels were measured immunochemically in plasma samples collected at the end of the reperfusion period. The adherence of PMNs to sections of coronary artery was measured in vitro using fluorescene labelled autologous cat neutrophils.

## CCO[C@@H]1O[C@H](CO)[C@H](O)[C@H](O[C@@H]2O[C@H](CO)[C@@H](O[C@@H]3O[C@H](CO)[C@H](O)[C@H](O[C@]4(C(=O)O)C[C@H](O)[C@@H](NC(C)=O)[C@H]([C@H](O)[C@H](O)CO)O4)[C@H]3O)[C@H](O[C@@H]3O[C@@H](C)[C@@H](O)[C@@H](O)[C@@H]3O)[C@H]2NC(C)=O)[C@H]1O [Z, Ethyl(sodium(5-acetamido-3,5-dideoxy-α-D-glycero-D-galacto-2-nonulopyanosylonate))-(2-3)-O-(β-D-galactopyranosyl)-(1-4)-O-((α-L-fucopyranosyl)-(1-3))-O-(2-acetamido-2-deoxy-β-D-glucopyranosyl)-(1-3)-O-β-D-galactopyranoside]
  endothelial dependent relaxation to acetylcholine: 73±7%
